Laboratory results from patent publication US20130052190A1, “CRTH2 Antagonists for Treatment of Eosinophilic Diseases and Conditions” (Oxagen Limited, priority 2011, published 2013).

Tests used:
[1] = system: patients with mild to moderate asthma; experiment: 4 week study in patients with mild to moderate asthma (FEV1); format: in vivo, human; conditions: after 4 weeks, 100 mg twice daily
Description: 4 Week Study in Patients with Mild to Moderate Asthma
The study was a randomized, double blind, placebo controlled study of (5-fluoro-2-methyl-3-quinolin-2-ylmethyl-indol-1-yl)-acetic acid (OC000459) for 28 days in patients with mild to moderate asthma with a FEV1 of 60-80% of predicted and requiring only short acting inhaled β2 agonists for symptomatic control. The study compared patients taking 100 mg of OC000459 twice daily with patients taking a placebo twice daily. The study consisted of 112 patients with 53 patients taking OC000459 and 59 patients taking the placebo.
1. Males and females aged 18-55 years. 2. Asthma controlled by short-acting β2 agonists only. 3. Mild to moderate persistent asthma according to GINA4 guidelines for at least 12 months. 4. Non-smokers for at least the past 12 months with a pack history of less than 10 pack years. 5. History of asthma symptoms increasing in response to external allergens. 6. Testing positive on skin prick test to an allergen associated with the patient's allergen.
1. Receipt of prescribed or over-the-counter medication within 14 days prior to the first study day. 2. Use of inhaled or local corticosteroids in the period 28 days prior to screening.

[2] = system: patients with mild to moderate persistent asthma; experiment: 12 week study in patients with mild to moderate persistent asthma (FEV1); format: in vivo, human; conditions: for FEV1 Improvement: 12 weeks, patient population on OC000459; for improvement in FEV1 over patients given the placebo / improvement in FEV1 over baseline: after 12 weeks
Description: 12 Week Study in Patients with Mild to Moderate Persistent Asthma
The study was a randomized, double blind, placebo controlled, four arm study of three dosage levels of (5-fluoro-2-methyl-3-quinolin-2-ylmethyl-indol-1-yl)-acetic acid (OC000459) tablets in patients with asthma controlled by β2 agonists alone. The study compared patients on OC000459 at three different dose levels (25 mg once daily, 100 mg twice daily, and 200 mg once daily) with patients on placebo after dosing for 12 weeks. The study consisted of 460 patients which yielded 440 evaluable results with 110 patients per arm. There was a screening period of 1 to 2 weeks, followed by placebo run-in for 3 weeks before the treatment period. There was a placebo wash-out for two weeks following the treatment period with a follow-up 3 to 5 weeks after the treatment period.
1. Males and females aged 18-55 years. 2. Asthma controlled by short-acting β2 agonists only. 3. Mild to moderate persistent asthma according to GINA4 guidelines for at least 12 months. 4. Non-smokers for at least the past 12 months with a pack history of less than 10 pack years.
Receipt of prescribed or over-the-counter medication within 14 days prior to the first study day.
1. Morning FEV1 of 60-85% of predicted. 2. Reversibility of ≧12% after salbutamol. 3. Greater than 1 puff per day of salbutamol required.

[3] = blood eosinophil count greater than or equal to 250/μL, FIG. 6(b)
[4] = full population (112 patients), FIG. 6(a)
[5] = FEV1 60-80% of predicted and positive skin prick test at baseline, FIG. 1
[6] = FEV1 60-80% of predicted, blood eosinophil count greater than or equal to 250/μL, positive skin prick test, FIG. 2

Cc1c(Cc2ccc3ccccc3n2)c2cc(F)ccc2n1CC(=O)O [OC000459, (5-fluoro-2-methyl-3-quinolin-2-ylmethyl-indol-1-yl)-acetic acid]
improvement in FEV1 over baseline [1, 3]: 250 mL | improvement in FEV1 over patients given the placebo [1, 3]: 180 mL | improvement in FEV1 over patients given the placebo ([1]; blood eosinophil count less than 250/μL, FIG. 6(c)): only a small improvement | improvement in FEV1 over baseline [1, 4]: 190 mL | improvement in FEV1 over patients given the placebo [1, 4]: 100 mL | FEV1 Improvement ([2]; 60-80% FEV1 Atopic): 130 mL | FEV1 Improvement ([2]; All-Comers): 100 mL | FEV1 Improvement ([2]; Hi-eosinophil count (>250/μL)): 188 mL | improvement in FEV1 over patients given the placebo ([2]; ACQ score greater than or equal to 1.5 at baseline, FIG. 4): 140 mL | improvement in FEV1 over patients given the placebo ([2]; ACQ score less than 1.5 at baseline, FIG. 5): 30 mL | improvement in FEV1 over baseline [2, 5]: 191 mL | improvement in FEV1 over patients given the placebo [2, 5]: 130 mL | improvement in FEV1 over baseline [2, 6]: 184 mL | improvement in FEV1 over patients given the placebo [2, 6]: 188 mL | improvement in FEV1 over patients given the placebo ([2]; FEV1 60-80% of predicted, blood eosinophil count less than 250/μL, positive skin prick test, FIG. 3): 76 mL
